target: T1, Aldo-keto reductase family 1 member B1 (Homo sapiens, UniProt P15121); experiment: Inhibition of human placental aldose reductase (HPAR) activity with glyceraldehyde as substrate

IC50 | SMILES
230 nM | CCCCCCS(=O)(=O)c1ccc(Cl)cc1C1NC(=O)NC1=O (centres undefined)
380 nM | CC(C)S(=O)(=O)c1ccc(Cl)cc1C1NC(=O)NC1=O (centres undefined)
30 nM | O=C1NC(=O)C(c2cc(Cl)ccc2S(=O)(=O)NCc2ccccc2)N1 (centres undefined)
220 nM | O=C1NC(=O)C(c2cc(Cl)ccc2S(=O)(=O)CCc2ccc(Cl)cc2)N1 (centres undefined)
5630 nM | O=C1NC(=O)C(c2cc(Cl)ccc2S(=O)(=O)NCCCCc2ccccc2)N1 (centres undefined)
50 nM | CCCCCS(=O)(=O)c1ccc(Cl)cc1C1NC(=O)NC1=O (centres undefined)
180 nM | CCS(=O)(=O)c1ccc(Cl)cc1C1NC(=O)NC1=O (centres undefined)
270 nM | Cc1cc(Cl)cc(C2NC(=O)NC2=O)c1S(C)(=O)=O (centres undefined)
190 nM | CCCCCNS(=O)(=O)c1ccc(Cl)cc1C1NC(=O)NC1=O (centres undefined)
270 nM | O=C1NC(=O)C(c2cc(Cl)ccc2S(=O)(=O)Cc2ccc(Cl)cc2)N1 (centres undefined)
100 nM | O=C1NC(=O)C(c2cc(Cl)ccc2S(=O)(=O)NCCCc2ccccc2)N1 (centres undefined)
130 nM | CNS(=O)(=O)c1ccc(Cl)cc1C1NC(=O)NC1=O (centres undefined)
7470 nM | COc1ccc(F)cc1C1NC(=O)NC1=O (centres undefined)
470 nM | O=C1NC(=O)C(c2cc(Cl)ccc2[S+]([O-])Cc2ccc(Cl)cc2)N1 (centres undefined)
1200 nM | O=C1NC(=O)C(c2cc(Cl)ccc2SCc2ccc(Cl)cc2)N1 (centres undefined)
610 nM | CS(=O)(=O)c1ccc(F)cc1C1NC(=O)NC1=O (centres undefined)
230 nM | O=C1NC(=O)C(c2cc(Cl)ccc2S(=O)(=O)Nc2ccc(F)cc2)N1 (centres undefined)
1260 nM | O=C1NC(=O)C(c2cc(Cl)ccc2S(=O)(=O)NCCc2ccccc2)N1 (centres undefined)
610 nM | CS(=O)(=O)c1c(Cl)cc(Cl)cc1C1NC(=O)NC1=O (centres undefined)
3870 nM | COc1ccc(Cl)cc1C1NC(=O)NC1=O (centres undefined)
620 nM | CSc1ccc(Cl)cc1C1NC(=O)NC1=O (centres undefined)
150 nM | NS(=O)(=O)c1ccc(Cl)cc1C1NC(=O)NC1=O (centres undefined)
4470 nM | CN(C)S(=O)(=O)c1ccc(Cl)cc1C1NC(=O)NC1=O (centres undefined)
580 nM | CCCNS(=O)(=O)c1ccc(Cl)cc1C1NC(=O)NC1=O (centres undefined)
580 nM | CS(=O)(=O)c1c(C2NC(=O)NC2=O)cc(Cl)cc1C(F)(F)F (centres undefined)
250 nM | CCCS(=O)(=O)c1ccc(Cl)cc1C1NC(=O)NC1=O (centres undefined)

target: T1, Aldo-keto reductase family 1 member B1; experiment: Compound was evaluated for inhibition of human placental aldose reductase (HPAR) activity with glyceraldehyde as substrate

IC50 | SMILES
700 nM | CCCCNS(=O)(=O)c1ccc(Cl)cc1C1NC(=O)NC1=O (centres undefined)
50 nM | CS(=O)(=O)c1ccc(Cl)cc1C1NC(=O)NC1=O (centres undefined)
250 nM | C[S+]([O-])c1ccc(Cl)cc1C1NC(=O)NC1=O (centres undefined)

From ChEMBL document CHEMBL1124482, “Rotationally restricted mimics of rigid molecules: nonspirocyclic hydantoin aldose reductase inhibitors” (J Med Chem, 1989)
